Test results as given in patent publication US20260207623A1, “USE OF ESTETROL IN HEPATICALLY IMPAIRED PATIENTS” (ESTETRA SRL, priority 2022, published 2026).

Tested on: post-menopausal women
Test: Example 3: menopause-specific Quality of Life (MENQOL) questionnaire
Assay type: in vivo, human

C[C@]12CC[C@@H]3c4ccc(O)cc4CC[C@H]3[C@@H]1[C@@H](O)[C@@H](O)[C@@H]2O.O [E4 monoh.]
MENQOL Anxious or Nervous, Estimate vs Placebo (15 mg): −0.6100 | MENQOL Being Impatient with Others, Estimate vs Placebo (15 mg): −0.4911 | MENQOL Difficulty sleeping, Estimate vs Placebo (15 mg): −0.7011 | MENQOL Dissatisfied Personal Life, Estimate vs Placebo (15 mg): −0.8163 | MENQOL Physical Domain, Aching in muscles, Estimate vs Placebo (15 mg): −0.1858 | MENQOL Psychosocial Domain Score, Estimate vs Placebo (15 mg): −0.5211 | Total MENQOL Score, Estimate vs Placebo (15 mg): −0.7068 | MENQOL Anxious or Nervous, Estimate vs Placebo (20 mg): −0.8197 | MENQOL Being Impatient with Others, Estimate vs Placebo (20 mg): −0.5656 | MENQOL Difficulty sleeping, Estimate vs Placebo (20 mg): −0.7258 | MENQOL Dissatisfied Personal Life, Estimate vs Placebo (20 mg): −1.2719 | MENQOL Physical Domain, Aching in muscles, Estimate vs Placebo (20 mg): −0.5576 | MENQOL Psychosocial Domain Score, Estimate vs Placebo (20 mg): −0.6056 | Total MENQOL Score, Estimate vs Placebo (20 mg): −0.7155
